Earlier results, collected in patent publication US5585244A, “Detection of retinoid X receptor subtype γ proteins” (Ligand Pharmaceuticals Incorporated, priority 1994, dated 1996).

How the values were obtained:
[1] = molecular target: retinoid X receptors (RXRs)
[2] = molecular target: retinoic acid receptors (RARs); conditions: 9cRA and tRA bind with equally high affinity
[3] = molecular target: retinoid X receptors (RXRs); conditions: versus tritiated 9cRA

Compound	Kd [1]	Kd [2]	IC50 [3]
CC1=C(/C=C/C(C)=C\C=C\C(C)=C\C(=O)O)C(C)(C)CCC1 [9cRA, 9-cis retinoic acid]	1 to 2 nM	0.2 to 0.8 nM	–
CC1=C(/C=C/C(C)=C/C=C/C(C)=C/C(=O)O)C(C)(C)CCC1 [tRA, all-trans retinoic acid]	–	0.2 to 0.8 nM	> 50000 nM
